Data on 4 compounds can be found in publication PMC9998502, “Functional selectivity of EM-2 analogs at the mu-opioid receptor” (Frontiers in Pharmacology, 2023).

The target of one series is T1, human mu receptor (Homo sapiens, UniProt P35372).
T1 construct: expressed in transfected cells; host or cells: CHO cells stably co-expressing Gαqi5
The experiment in a line: Calcium mobilization assay, CHO mu cells expressing Gαqi5. Format: cell-based. The conditions noted are these: for mu α±SEM: intrinsic activity, Emax ratio to standard agonist EM-2.

Series [1] is described as follows: Enzymatic degradation in rat brain homogenate. The conditions noted are these: for 100 x k, rate constant of degradation: up to 60 min; for half-life at 0.25 mM: read-out: t1/2, degradation half-life. Format: in vitro ADME. The protocol: Enzymatic degradation of EM-2 and the analogs was performed measuring their hydrolysis rates in the presence of rat brain homogenate. The homogenate was prepared prior to the experiment. Briefly, rat brains were homogenized in 20 volumes of Tris–HCl (50 mM, pH 7.4) using a Polytron and the obtained aliquots were stored at −80°C. In the experiment, aliquotes of brain homogenate (100 μL, 10 mg protein/mL) were incubated with 100 µL of a peptide (0.5 mM) over 0, 7.5; 15, 22.5; 30, and 60 min at 37°C, in a final volume of 200 µL. After the incubation the degradation reaction was stopped by placing the tube on ice and acidifying the content with 20 µL of HCl (1 M). The aliquots were centrifuged at 20,000 g for 10 min at 4°C. The supernatants were collected and filtered using Millex-GV syringe filters (Millipore). Then the analysis by HPLC on a Vydac C18 column (5 μm, 4.6 × 250 mm), using the solvent system of 0.1% TFA in water (A) and 80% acetonitrile in water containing 0.1% TFA (B) and a linear gradient of 0%–100% B over 25 min, was performed. Three independent experiments for each assay were carried out in duplicate. The rate constants of degradation (k) were obtained by the least square linear regression analysis of logarithmic peak areas [ln (A/AD)], where A—amount of remained peptide, AD—initial amount of peptide versus time. Degradation half-lives (t1/2) were calculated from the rate constants as ln2/k.

In series [2] the target is T2, human recombinant kappa opioid receptor (Homo sapiens, UniProt P41145).
T2 construct: purchased; host or cells: CHO cells (membranes)
T2 sequence (P41145 whole entry): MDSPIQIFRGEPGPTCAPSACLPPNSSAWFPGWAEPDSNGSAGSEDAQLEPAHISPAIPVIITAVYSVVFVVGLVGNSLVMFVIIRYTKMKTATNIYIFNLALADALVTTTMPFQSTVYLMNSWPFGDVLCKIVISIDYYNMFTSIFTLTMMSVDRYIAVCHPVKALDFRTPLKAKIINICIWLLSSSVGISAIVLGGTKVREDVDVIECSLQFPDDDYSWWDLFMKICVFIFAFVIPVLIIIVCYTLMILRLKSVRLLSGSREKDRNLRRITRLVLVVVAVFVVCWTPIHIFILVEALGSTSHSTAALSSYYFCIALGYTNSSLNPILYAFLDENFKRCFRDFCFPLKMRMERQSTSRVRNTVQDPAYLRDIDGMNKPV
Kind of series: Radioligand binding, [3H]U-69593 displacement, CHO cell membranes.

Series [3] can be described thus: n-Octanol/water partition coefficient (log P). Format: physicochemical. The conditions noted are these: n-octanol / 0.05 M HEPES buffer in 0.1 M NaCl, pH 7.4. The protocol: Determination of log P was performed according to the method described by ([Liu et al., 2006]). Peptides were dissolved in 0.05 M HEPES buffer in 0.1 M NaCl, pH 7.4, then an equal volume of n-octanol was added and mixtures were vortexed for 2 min. Samples were centrifuged at 4,000 rpm for 1 min. After separation, aqueous and octanol phases were used to quantify peptide content by RP-HPLC.
Octanol phase was lyophilized and reconstituted in 80% acetonitrile in water containing 0.1% TFA before RP-HPLC. All n-octanol/buffer distribution studies were performed in triplicate.

Series [4] addresses T3, delta-opioid receptor (Homo sapiens, UniProt P41143). Kind of series: Calcium mobilization assay, CHO delta cells expressing GαqG66Di5. Format: cell-based. Also noted: expressed in transfected cells; host or cells: CHO cells co-expressing GαqG66Di5. As to conditions: inactive = inactive up to 10 µM; for Delta pEC50 (CL95%): calcium mobilization; for Delta α± SEM: intrinsic activity, Emax ratio to standard agonist DPDPE. (A change in cytosolic calcium serves as a functional read-out for many receptors and channels.)

Series [5] addresses mu receptor-G protein interaction (Homo sapiens, UniProt P35372). Kind of series: BRET mu-G protein interaction assay (membranes of SH-SY5Y cells, mu-RLuc/Gβ1-RGFP).
Protocol: (§1) SH-SY5Y cells stably co-expressing the fusoproteins mu-RLuc and Gβ1-RGFP or mu-RLuc and β-arrestin 2-RGFP were grown in DMEM/F12 (1:1) medium supplemented with 10% FBS, 2 mM L-Glutamine, 100 μg/mL hygromycin B, 400 μg/mL G418, 100 units/mL penicillin G, 100 μg/mL streptomycin and 1 μg/mL Fungizone at 37°C in a humidified atmosphere with of 5% CO2.
Total protein in membrane preparations was determined by colorimetric method with the Quantum Protein-BCA kit (EuroClone, Pero (MI), IT) and measured using the multiplate reader Victor Nivo (PerkinElmer, Walthman, MA, United States). White opaque 96 wells microplates (PerkinElmer, Walthman, MA, United States) were used to carry out BRET assays. Cell membranes were thawed and resuspended in PBS supplemented with 0.02% BSA before the assay, and an amount of 5 μg of total protein was dispensed in each 96 well. All experiments were carried out at room temperature.
(§2) In agonism experiments, ligands were added and incubated for 5 min before microplate reading. […] BRET ratios were computed as follow: RGFPCPS/RLucCPSligand−RGFPCPS/RLucCPSvehicle
(§3) Concentration-response curves to agonists were fitted to the four-parameter logistic non-linear regression model as follows: Effect=Basal+Emax−Basal/1+10^LogEC50−Logligand×HillSlope
Series [6] concerns the target T4, mu receptor-β-arrestin 2 interaction (Homo sapiens, UniProt P35372). Kind of series: cell-based. Also noted: expressed in transfected cells. As to conditions: read-out: pKb (CL95%) (converted). The method, then: In antagonism experiments, a 10 min preincubation with vehicle or fixed concentrations of ligand preceded the injection of increasing concentrations of EM-2.
Antagonist potencies (pKb) were computed applying the following equation: pKb = (log (CR − 1)) − log [Anta] with CR as the ratio between agonist potency (molar) in the presence and absence of antagonist and [Anta] is the molar concentration of antagonist. pKb represents the concentration of antagonist that occupies half of the receptor population at equilibrium, expressed in molar units.

In the next series the target is T5, human kappa receptor (Homo sapiens, UniProt P41145).
T5 construct: expressed in transfected cells; host or cells: CHO cells stably co-expressing Gαqi5
T5 sequence (P41145 whole entry): as above
Kind of series: Calcium mobilization assay, CHO kappa cells expressing Gαqi5. Format: cell-based. As to conditions: inactive = inactive up to 10 µM; for Kappa pEC50 (CL95%): calcium mobilization; for Kappa α± SEM: intrinsic activity, Emax ratio to standard agonist dynorphin A.

For series [7], the target named is T4, mu receptor-β-arrestin 2 interaction. The experiment in a line: BRET mu-β-arrestin 2 interaction assay (living SH-SY5Y cells, mu-RLuc/β-arrestin 2-RGFP), agonism. The conditions noted are these: for β-Arrestin 2 pEC50 (CL95%): BRET mu-β-arrestin 2, Inactive: Emax < 0.10, analog 6 obtained by forcing the Emax to 1.
Protocol: as §1
Mu- β-arrestin 2 interaction—Living SH-SY5Y cells expressing mu-RLuc and β-arrestin 2-RGFP were seeded at a cell density of 100,000 cells/well 24 h prior to the test. On the day of the experiment, medium was discarded, and cells were washed with PBS supplemented with 0.5 mM MgCl2, 0.9 mM CaCl2. Cells were subsequently incubated with 2 μM Prolume Purple Coelenterazine (NanoLight Technology, White Mountain, AZ; United States) for 10 min before bioluminescence reading.
as §2, §3
Series [8] concerns the target T3, delta-opioid receptor. Kind of series: Radioligand binding, [3H]deltorphin-2 displacement, CHO cell membranes. Also noted: purchased; host or cells: CHO cells (membranes).
The target in series [9] is T6, human recombinant mu opioid receptor (Homo sapiens, UniProt P35372).
T6 construct: purchased; host or cells: CHO cells (membranes)
T6 sequence (P35372 whole entry): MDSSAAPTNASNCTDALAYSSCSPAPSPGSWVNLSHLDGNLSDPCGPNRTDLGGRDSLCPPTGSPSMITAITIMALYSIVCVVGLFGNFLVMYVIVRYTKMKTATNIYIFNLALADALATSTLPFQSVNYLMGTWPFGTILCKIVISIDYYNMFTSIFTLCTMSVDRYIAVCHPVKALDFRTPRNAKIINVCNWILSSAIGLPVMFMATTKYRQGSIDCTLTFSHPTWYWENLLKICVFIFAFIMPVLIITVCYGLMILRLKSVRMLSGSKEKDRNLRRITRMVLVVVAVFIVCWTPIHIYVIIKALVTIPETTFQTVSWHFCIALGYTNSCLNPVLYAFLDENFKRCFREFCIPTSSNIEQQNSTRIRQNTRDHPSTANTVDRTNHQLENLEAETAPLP
Kind of series: Radioligand binding, [3H]DAMGO displacement, CHO cell membranes.

The subject of another series is mu receptor. The experiment in a line: Bias factor, mu-G protein vs mu-β-arrestin 2 (BRET), EM-2 as standard ligand. The conditions noted are these: log10 units, towards G protein. (BRET reads energy transfer from a luciferase to a nearby fluorophore.)
Where [10] appears, read: inactive = inactive up to 10 µM.
Where [11] appears, read: rat, pH 7.4, rat brain homogenate, 37°C, ln2/k.

Where two headings read alike, the source gives them in different places. Marks after values point to notes of the source that are not given here. Where only a bound is given, the exact number is not on record here.

In general, logD refers to the decadic logarithm of the distribution of all forms, ionised or not, between an organic phase and buffer at a given pH. The low end stands for lower lipophilicity, the high end for higher lipophilicity.

Sequence of mu receptor-G protein interaction (P62871 whole entry): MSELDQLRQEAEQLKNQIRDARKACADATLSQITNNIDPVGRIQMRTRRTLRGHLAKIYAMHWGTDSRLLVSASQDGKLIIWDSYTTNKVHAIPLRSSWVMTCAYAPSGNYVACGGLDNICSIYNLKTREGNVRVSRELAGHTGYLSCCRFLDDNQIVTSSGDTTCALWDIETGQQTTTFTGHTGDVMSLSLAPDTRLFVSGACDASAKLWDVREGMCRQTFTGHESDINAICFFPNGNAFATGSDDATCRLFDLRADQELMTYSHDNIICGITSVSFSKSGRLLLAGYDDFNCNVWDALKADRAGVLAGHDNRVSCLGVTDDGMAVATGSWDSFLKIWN
Sequence of mu receptor-G protein interaction (P35372 whole entry): as the sequence (P35372 whole entry) above
T1 sequence (P35372 whole entry): as above
T4 sequence (P35372 whole entry): as above
T3 sequence (P41143 whole entry): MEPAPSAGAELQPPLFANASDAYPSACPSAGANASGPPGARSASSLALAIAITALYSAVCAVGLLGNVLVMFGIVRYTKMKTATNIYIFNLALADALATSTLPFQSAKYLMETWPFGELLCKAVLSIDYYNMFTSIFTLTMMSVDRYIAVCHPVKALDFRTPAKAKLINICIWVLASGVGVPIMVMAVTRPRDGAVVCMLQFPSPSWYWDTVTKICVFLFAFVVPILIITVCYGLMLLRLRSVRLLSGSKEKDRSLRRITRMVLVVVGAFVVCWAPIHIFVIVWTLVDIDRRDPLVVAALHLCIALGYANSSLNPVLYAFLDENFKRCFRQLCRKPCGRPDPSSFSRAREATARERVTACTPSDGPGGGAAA

As to `NC(=O)[C@H](Cc1ccccc1)NC(=O)[C@@H](CNC(=O)[C@@H]1CCCN1C(=O)[C@@H](N)Cc1ccc(O)cc1)Cc1cccc2ccccc12` [analog 10, Tyr-Pro-(R)-β ^ 2 -1-Nal-Phe-NH2], on human mu receptor (setting [10]), the “mu α±SEM” value is reported as 0.25 ± 0.06. Moreover, the “t1/2, degradation half-life” value in series [1] (37°C, ln2/k) came to 168.3 ± 5.5 min. Also, the “100 x k, rate constant of degradation” value in series [1] (37°C) is recorded as 0.41 ± 0.02 per min. Further, the half-life at 0.25 mM in series [1] (setting [11]) is 168 min. Further, in series [2], the Ki was > 1000 nM. The same compound showed a log distribution coefficient (logD) in series [3] of 2.5. Also, on delta-opioid receptor [4], the “Delta pEC50 (CL95%)” value was “inactive” and the “Delta α± SEM” value is “inactive”. This compound also gave an EC50 in [5] of 105 nM. In series [6], the Kb is 631 nM. On human kappa receptor, the “Kappa pEC50 (CL95%)” value is “inactive” and the “Kappa α± SEM” value is “inactive”. For the same compound, the “β-Arrestin 2 pEC50 (CL95%)” value in series [7] is on record as “Inactive”. The Ki on delta-opioid receptor [8] is > 1000 nM.

On to `NC(=O)[C@H](Cc1ccccc1)NC(=O)[C@H](Cc1ccccc1)NC(=O)[C@H]1CCCCN1C(=O)[C@@H](N)Cc1ccc(O)cc1` [analog 2, Tyr-(R)-Pip-Phe-Phe-NH2], for which the EC50 was 58.9 nM on human mu receptor and 38 nM in [5]. The “mu α±SEM” value at human mu receptor (setting [10]) came out at 0.64 ± 0.04. Further, in series [1] (37°C), the “100 x k, rate constant of degradation” value worked out at 0.57 ± 0.08 per min. Moreover, the half-life at 0.25 mM in series [1] (setting [11]) was 121 ± 3.1 min. Also, the Ki is > 1000 nM in series [2], 17.7 ± 1.14 nM in [9] and 682 ± 33 nM on delta-opioid receptor [8]. The compound further displayed a logD in series [3] of 2.3. Moreover, the “Delta pEC50 (CL95%)” value on delta-opioid receptor [4] is “inactive”. Besides, the “Delta α± SEM” value on delta-opioid receptor [4] was “inactive”. Also, the Kb in series [6] was 170 nM. For the same compound, the “Kappa pEC50 (CL95%)” value at human kappa receptor was “inactive”. The “Kappa α± SEM” value on human kappa receptor was “inactive”. The “β-Arrestin 2 pEC50 (CL95%)” value in [7] is “Inactive”.

For the compound `Cc1cc(O)cc(C)c1C[C@H](N)C(=O)N1CCC[C@H]1C(=O)NC[C@@H](Cc1cccc2ccccc12)C(=O)N[C@@H](Cc1ccccc1)C(N)=O` [analog 11, Dmt-Pro-(R)-β ^ 2 -1-Nal-Phe-NH2], the EC50 at human mu receptor is 9.77 nM. The “mu α±SEM” value at human mu receptor (setting [10]) came to 0.57 ± 0.05. The “100 x k, rate constant of degradation” value in series [1] (37°C) was determined as 0.56 ± 0.02 per min. Also, in [1] (setting [11]), the half-life at 0.25 mM is 123 ± 5.9 min. Besides, in series [2], the Ki was > 1000 nM. In [3], this compound returned a log distribution coefficient (logD) of 2.71. For the same compound, on delta-opioid receptor [4], the “Delta pEC50 (CL95%)” value is “inactive” and the “Delta α± SEM” value is “inactive”. In series [5], this compound showed an EC50 of 4.9 nM. In addition, in series [6], the Kb was 0.398 nM. Besides, at human kappa receptor, the “Kappa pEC50 (CL95%)” value was “inactive” and the “Kappa α± SEM” value was “inactive”. Also, in [7], the “β-Arrestin 2 pEC50 (CL95%)” value was “Inactive”.

In the case of `C[C@H](CNC(=O)[C@@H](N)Cc1ccc(O)cc1)C(=O)N[C@@H](Cc1ccccc1)C(=O)N[C@@H](Cc1ccccc1)C(N)=O` [analog 6, Tyr-(R)-β ^ 2 -Ala-Phe-Phe-NH2], the EC50 was 30.2 nM at human mu receptor (calcium mobilization, inactive = inactive up to 10 µM, read-out: mu pEC50 (CL95%) (converted)); 417 nM in series [5]; 14.1 µM in [7]. In addition, the “mu α±SEM” value at human mu receptor (setting [10]) came to 0.88 ± 0.06. For the same compound, the “100 x k, rate constant of degradation” value in series [1] (37°C) stood at 1.03 ± 0.07 per min. Moreover, in [1] (pH 7.4, 37°C, ln2/k), the half-life at 0.25 mM was 66.9 ± 2.7 min. The Ki in series [2] is > 1000 nM; in [9] ([3H]DAMGO, n ≥ 3, read-out: Ki ± SEM, mu) it was 46.8 ± 5.18 nM; at delta-opioid receptor [8] ([3H]deltorphin-2, n ≥ 3, read-out: Ki ± SEM, Delta) it was > 1000 nM. The compound also came in with a logD in series [3] of 1.75. For the same compound, the “Delta pEC50 (CL95%)” value on delta-opioid receptor [4] was “inactive”. On delta-opioid receptor [4], the “Delta α± SEM” value was “inactive”. The “Kappa pEC50 (CL95%)” value at human kappa receptor was “inactive”. For the same compound, the “Kappa α± SEM” value at human kappa receptor was “inactive”. Besides, the “β-Arrestin 2 Emax±sem” value in series [7] is “∼1 ^a”. For the same compound, the “Bias factor (CL95%)” value with mu receptor is reported as 1.35 (1.15–1.55).
